Earlier results, collected in patent US7547545B2, “Directed in vitro differentiation of marrow stromal cells into neural cell progenitors” (priority 2001, dated 2009).

Legend:
prostate tumor cells = details: Cox et al. 1999
C6 glioma cells = details: Sharma et al. 1987 and Ghosh et al. 1997
[1] = system: medulloblastoma cell line, MCD-1; details: MCD-1 cells, Moore et al. 1996

| Compound | neuroendocrine characteristics (prostate tumor cells) | neural differentiation (C6 glioma cells) | extension of processes [1] |
| --- | --- | --- | --- |
| CC(C)NCC(O)c1ccc(O)c(O)c1 (centres unmarked) [isoproterenol] | induce prostate tumor cells to assume many of the characteristics of neuroendocrine cells | – | – |
| CCCC(=O)Nc1ncnc2c1ncn2[C@@H]1O[C@@H]2COP(=O)(O)O[C@H]2[C@H]1OC(=O)CCC [dbcAMP, dibutyryl cyclic AMP] | induce prostate tumor cells to assume many of the characteristics of neuroendocrine cells | induced neural differentiation | greatly increase the extension of processes |
| CNC[C@H](O)c1ccc(O)c(O)c1 [epinephrine] | induce prostate tumor cells to assume many of the characteristics of neuroendocrine cells | – | – |
